Experimental data reported in US9695155B2, “Herbicidal substituted pyrimidinyloxy benzene compounds” (E. I. DU PONT DE NEMOURS AND COMPANY, priority 2013, dated 2017).

Tests used:
pigweed = experiment: Test A preemergence; type: in vivo, Amaranthus retroflexus
Outline: (§1)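 Compounds in non-phytotoxic solvent with surfactant applied as soil spray preemergence, or postemergence to plants 2-10 cm at one- to two-leaf stage, in loam/sand. After approximately 10 days in greenhouse, injury rated visually versus untreated controls, 0 (no effect) to 100 (complete control).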

blackgrass = experiment: Test C postemergence; type: in vivo, Alopecurus myosuroides
Description: (§2) Seeds of plant species selected from blackgrass (Alopecurus myosuroides), Italian ryegrass (Lolium multiflorum), wheat, winter (winter wheat, Triticum aestivum), galium (catchweed bedstraw, Galium aparine), corn (Zea mays), large (Lg) crabgrass (Digitaria sanguinalis), giant foxtail (Setaria faberii), johnsongrass (Sorghum halepense), lambsquarters (Chenopodium album), morningglory (Ipomoea coccinea), yellow nutsedge (Cyperus esculentus), pigweed (Amaranthus retroflexus), ragweed (common ragweed, Ambrosia elatior), soybean (Glycine max), barnyardgrass (Echinochloa crus-galli), oilseed rape (Brassica napus), waterhemp (common waterhemp, Amaranthus rudis), kochia (Kochia scoparia), wild oat (Avena fatua), surinam grass (Brachiaria decumbens), foxtail, green (green foxtail, Setaria viridis), goosegrass (Eleusine indica), bromegrass, downy (downy bromegrass, Bromus tectorum), nightshade (eastern black nightshade, Solanum ptycanthum), cocklebur (common cocklebur, Xanthium strumarium), cupgrass, woolly (woolly cupgrass, Eriochloa villosa), bermudagrass (Cynodon dactylon), sunflower, (common oilseed sunflower, Helianthus annuus), Russian thistle (Salsola kali), and velvetleaf (Abutilon theophrasti) were planted into a blend of loam soil and sand and treated preemergence with test chemicals formulated in a non-phytotoxic solvent mixture which included a surfactant.
(§3) At the same time, plants selected from these crop and weed species and also barley, winter (winter barley, Hordeum vulgare), windgrass (Apera spica-venti), chickweed (common chickweed, Stellaria media), deadnettle (henbit deadnettle, Lamium amplexicaule), and canarygrass (littleseed canarygrass, Phalaris minor) were planted in pots containing Redi-Earth® planting medium (Scotts Company, 14111 Scottslawn Road, Marysville, Ohio 43041) comprising spaghnum peat moss, vermiculite, wetting agent and starter nutrients and treated with postemergence applications of test chemicals formulated in the same manner. Plants ranged in height from 2 to 18 cm (1- to 4-leaf stage) for postemergence treatments. Treated plants and controls were maintained in a greenhouse for 13 to 15 days, after which time all species were compared to controls and visually evaluated. Plant response ratings, summarized in Table C, are based on a scale of 0 to 100 where 0 is no effect and 100 is complete control. A dash (-) response means no test result.

wheat, winter = experiment: Test C postemergence; type: in vivo, Triticum aestivum
Outline: (§4)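 Sown in loam/sand → sprayed pre-emergence; or grown to 1–4 leaves in peat mix → sprayed post-emergence. Same solvent/surfactant formulation both ways. Greenhouse 13–15 d. Score 0–100 visual.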

corn = experiment: Test C postemergence; type: in vivo, Zea mays
Description: as §2, §3

giant foxtail = experiment: Test C postemergence; type: in vivo, Setaria faberii
Outline: as §4

yellow nutsedge = experiment: Test C postemergence; type: in vivo, Cyperus esculentus
Description: as §2, §3

barnyardgrass = experiment: Test C postemergence; type: in vivo, Echinochloa crus-galli
Outline: as §4

wild oat = experiment: Test C postemergence; type: in vivo, Avena fatua
Outline: as §4

chickweed = experiment: Test C postemergence; type: in vivo, Stellaria media
Description: as §2, §3

large (Lg) crabgrass = experiment: Test A preemergence; type: in vivo, Digitaria sanguinalis; conditions: Digitaria sanguinalis, pre-emergence, 240 h, read-out: Crabgrass, Large plant response rating
Outline: as §1

[1] = 31 g ai/ha, postemergence, visual rating, scale 0 to 100 (0 no effect, 100 complete control), 13 to 15 days
[2] = 125 g ai/ha, postemergence, visual rating, scale 0 to 100 (0 no effect, 100 complete control)
[3] = Postemergence, 62 g ai/ha, scale 0 to 100 (0 no effect, 100 complete control), 13 to 15 days

N#Cc1cccc(Oc2ncc(Cl)cn2)c1-n1cc(-n2ccc(C(F)(F)F)n2)cn1 [Compound 284]
5: Blackgrass plant response rating (blackgrass; [1]) | Plant response rating, Blackgrass (blackgrass; [2]) | Plant response rating (0 to 100), Blackgrass (blackgrass; 250 g ai/ha, postemergence) | Plant response rating, Blackgrass (blackgrass; [3]) | Plant response rating, Wheat (wheat, winter; [2]) | Plant response rating (0 to 100), Wheat (wheat, winter; 250 g ai/ha, postemergence) | Plant response rating, Wheat (wheat, winter; [3]) | Corn plant response rating (corn; [1]) | Plant response rating (0 to 100), Nutsedge, Yellow (yellow nutsedge; 250 g ai/ha, postemergence) | Oat, Wild plant response rating (wild oat; [1]) | Plant response rating, Oat, Wild (wild oat; [2]) | Plant response rating (0 to 100), Oat, Wild (wild oat; 250 g ai/ha, postemergence) | Plant response rating, Oat, Wild (wild oat; [3])
0: Wheat plant response rating (wheat, winter; [1]) | Nutsedge, Yellow plant response rating (yellow nutsedge; [1]) | Plant response rating, Nutsedge, Yellow (yellow nutsedge; [2]) | Plant response rating, Nutsedge, Yellow (yellow nutsedge; [3])
15: Plant response rating, Barnyardgrass (barnyardgrass; [2]) | Plant response rating (0 to 100), Barnyardgrass (barnyardgrass; 250 g ai/ha, postemergence)
100: Pigweed plant response rating (0 to 100 scale) (pigweed; 125 g ai/ha) | Pigweed plant response rating (pigweed; 500 g ai/ha, 0 to 100 scale where 0 is no effect and 100 is complete control) | Plant response rating, Chickweed (chickweed; [2]) | Plant response rating (0 to 100), Chickweed (chickweed; 250 g ai/ha, postemergence) | Plant response rating, Chickweed (chickweed; [3])
65: Chickweed plant response rating (chickweed; [1])
10: Plant response rating, Corn (corn; [3]) | Foxtail, Giant plant response rating (giant foxtail; [1]) | Plant response rating, Foxtail, Giant (giant foxtail; [3]) | Barnyardgrass plant response rating (barnyardgrass; [1]) | Plant response rating, Barnyardgrass (barnyardgrass; [3])
20: Plant response rating, Corn (corn; [2]) | Plant response rating (0 to 100), Corn (corn; 250 g ai/ha, postemergence) | Plant response rating, Foxtail, Giant (giant foxtail; [2])
25: Plant response rating (0 to 100), Foxtail, Giant (giant foxtail; 250 g ai/ha, postemergence)

Fc1cnc(Oc2ccccc2-n2cc(Br)cn2)nc1 [Compound 10, 2-[2-(4-bromo-1H-pyrazol-1-yl)phenoxy]-5-fluoropyrimidine]
98%: pest or weed control at 250 g/ha (chickweed; Stellaria media, post-emergence, 250 g ai/ha, postemergence, read-out: Plant response rating (0 to 100), Chickweed)
10%: plant injury at 250 g/ha (wheat, winter; Triticum aestivum, post-emergence, 250 g ai/ha, postemergence, read-out: Plant response rating (0 to 100), Wheat)
100%: pest or weed control at 125 g/ha (large (Lg) crabgrass; 125 g ai/ha, 0 to 100 scale where 0 is no effect and 100 is complete control) | pest or weed control at 500 g/ha (large (Lg) crabgrass; 500 g ai/ha, 0 to 100 scale, 0 no effect, 100 complete control, approx. 10 days) | pest or weed control at 125 g/ha (pigweed; Amaranthus retroflexus, pre-emergence, 240 h, 125 g ai/ha, 0 to 100 scale where 0 is no effect and 100 is complete control, read-out: Pigweed plant response rating) | pest or weed control at 500 g/ha (pigweed; Amaranthus retroflexus, pre-emergence, 240 h, 500 g ai/ha, 0 to 100 scale, 0 no effect, 100 complete control, approx. 10 days, read-out: Pigweed plant response rating)
40%: pest or weed control at 125 g/ha (blackgrass; Alopecurus myosuroides, post-emergence, 125 g ai/ha, postemergence, read-out: Plant response rating (0 to 100), Blackgrass)
0%: pest or weed control at 31 g/ha (giant foxtail; Setaria faberi, post-emergence, Postemergence, 31 g ai/ha, scale 0 to 100 (0 no effect, 100 complete control), 13 to 15 days, read-out: Plant response rating, Foxtail, Giant) | pest or weed control at 62 g/ha (giant foxtail; Setaria faberi, post-emergence, Postemergence, 62 g ai/ha, scale 0 to 100 (0 no effect, 100 complete control), read-out: Plant response rating, Foxtail, Giant) | pest or weed control at 31 g/ha (yellow nutsedge; Cyperus, post-emergence, Postemergence, 31 g ai/ha, scale 0 to 100 (0 no effect, 100 complete control), 13 to 15 days, read-out: Plant response rating, Nutsedge, Yellow) | pest or weed control at 31 g/ha (wild oat; Avena fatua, post-emergence, Postemergence, 31 g ai/ha, scale 0 to 100 (0 no effect, 100 complete control), 13 to 15 days, read-out: Plant response rating, Oat, Wild) | pest or weed control at 62 g/ha (wild oat; Avena fatua, post-emergence, Postemergence, 62 g ai/ha, scale 0 to 100 (0 no effect, 100 complete control), read-out: Plant response rating, Oat, Wild)
20%: plant injury at 250 g/ha (corn; Zea mays, post-emergence, 250 g ai/ha, postemergence, read-out: Plant response rating (0 to 100), Corn)
35%: pest or weed control at 125 g/ha (chickweed; Stellaria media, post-emergence, 125 g ai/ha, postemergence, read-out: Plant response rating (0 to 100), Chickweed)
75%: pest or weed control at 250 g/ha (blackgrass; Alopecurus myosuroides, post-emergence, 250 g ai/ha, postemergence, read-out: Plant response rating (0 to 100), Blackgrass)
30%: pest or weed control at 250 g/ha (wild oat; Avena fatua, post-emergence, 250 g ai/ha, postemergence, read-out: Plant response rating (0 to 100), Oat, Wild) | pest or weed control at 62 g/ha (chickweed; Stellaria media, post-emergence, Postemergence, 62 g ai/ha, scale 0 to 100 (0 no effect, 100 complete control), read-out: Plant response rating, Chickweed)
5%: pest or weed control at 31 g/ha (blackgrass; Alopecurus myosuroides, post-emergence, Postemergence, 31 g ai/ha, scale 0 to 100 (0 no effect, 100 complete control), 13 to 15 days, read-out: Plant response rating, Blackgrass) | pest or weed control at 62 g/ha (blackgrass; Alopecurus myosuroides, post-emergence, Postemergence, 62 g ai/ha, scale 0 to 100 (0 no effect, 100 complete control), read-out: Plant response rating, Blackgrass) | plant injury at 125 g/ha (wheat, winter; Triticum aestivum, post-emergence, 125 g ai/ha, postemergence, read-out: Plant response rating (0 to 100), Wheat) | plant injury at 31 g/ha (wheat, winter; Triticum aestivum, post-emergence, Postemergence, 31 g ai/ha, scale 0 to 100 (0 no effect, 100 complete control), 13 to 15 days, read-out: Plant response rating, Wheat) | plant injury at 62 g/ha (wheat, winter; Triticum aestivum, post-emergence, Postemergence, 62 g ai/ha, scale 0 to 100 (0 no effect, 100 complete control), read-out: Plant response rating, Wheat) | plant injury at 125 g/ha (corn; Zea mays, post-emergence, 125 g ai/ha, postemergence, read-out: Plant response rating (0 to 100), Corn) | Corn plant response rating (crop injury, 0 = no effect, 100 = complete kill) at 31 g/ha (corn; Zea mays, post-emergence, Postemergence, 31 g ai/ha, scale 0 to 100 (0 no effect, 100 complete control), 13 to 15 days) | Corn plant response rating (crop injury, 0 = no effect, 100 = complete kill) at 62 g/ha (corn; Zea mays, post-emergence, Postemergence, 62 g ai/ha, scale 0 to 100 (0 no effect, 100 complete control)) | pest or weed control at 125 g/ha (giant foxtail; Setaria faberi, post-emergence, 125 g ai/ha, postemergence, read-out: Plant response rating (0 to 100), Foxtail, Giant) | pest or weed control at 250 g/ha (giant foxtail; Setaria faberi, post-emergence, 250 g ai/ha, postemergence, read-out: Plant response rating (0 to 100), Foxtail, Giant) | pest or weed control at 125 g/ha (yellow nutsedge; Cyperus, post-emergence, 125 g ai/ha, postemergence, read-out: Plant response rating (0 to 100), Nutsedge, Yellow) | pest or weed control at 250 g/ha (yellow nutsedge; Cyperus, post-emergence, 250 g ai/ha, postemergence, read-out: Plant response rating (0 to 100), Nutsedge, Yellow) | pest or weed control at 62 g/ha (yellow nutsedge; Cyperus, post-emergence, Postemergence, 62 g ai/ha, scale 0 to 100 (0 no effect, 100 complete control), read-out: Plant response rating, Nutsedge, Yellow) | pest or weed control at 125 g/ha (wild oat; Avena fatua, post-emergence, 125 g ai/ha, postemergence, read-out: Plant response rating (0 to 100), Oat, Wild) | pest or weed control at 31 g/ha (chickweed; Stellaria media, post-emergence, Postemergence, 31 g ai/ha, scale 0 to 100 (0 no effect, 100 complete control), 13 to 15 days, read-out: Plant response rating, Chickweed)
